Numbered stars: 1 amine (or outer) side, 2 acyl side, 3 side chain; on linkers, the order of the positions; unused ones are H or OH. Bridge positions count the residues as written; N and C are the ends. Peptide text beside a SMILES is read from it. I, II: the chains in the order shown. Rhodamine110 = O=C1OC2(c3ccc(N[*:1])cc3Oc3cc(N[*:2])ccc32)c2ccccc21
Columns and labels:
Assay type in all cases: cell-based, human
lymphocytes [1] = assay: enzyme activity with fluorogenic substrate, normal lymphocytes (Table 3A)
monocytes [2] = assay: enzyme activity with fluorogenic substrate, normal monocytes (Table 3A)
granulocytes [3] = assay: enzyme activity with fluorogenic substrate, normal granulocytes (Table 3A)
lymphocytes [4] = assay: aberrant enzyme activities in febrile children, lymphocytes (Table 7)
monocytes [5] = assay: aberrant enzyme activities in febrile children, monocytes (Table 7)
granulocytes [6] = assay: aberrant enzyme activities in febrile children, granulocytes (Table 7)
[7] = tested on: metabolically active whole cell; assay: substrate panel in normals and HIV + patients, TB infection (Table 4); set-up: unit not given here
Experimental: A panel of assay compounds are assembled consisting of Ala-aminopeptidase and Lys-aminopeptidase, Dipeptidyl peptidase IV (Ala-Ala)2 rhodamine 110 and Cathepsin D to indicate possible TB infection in AIDS related cases.
A panel Of enzymatic substrates is performed consisting of Ala-aminopeptidase and Lys-aminopeptidase, Dipeptidyl peptidase IV (Ala-Ala)2 rhodamine 110 and Cathepsin D to indicate possible TB infection in AIDS related cases.

Row | SMILES | NORMAL LEUKOCYTE ENZYME ACTIVITY LYMPHS Mean (lymphocytes [1]) | NORMAL LEUKOCYTE ENZYME ACTIVITY GRANS Mean (granulocytes [3]) | aberrant enzyme activity, LYMPHS (lymphocytes [4]; P88 Enteritis) | aberrant enzyme activity, LYMPHS (lymphocytes [4]; P89 Viral Stomatitis) | aberrant enzyme activity, LYMPHS (lymphocytes [4]; P92 Adenitis) | aberrant enzyme activity, LYMPHS (lymphocytes [4]; P97 Pyelonephritis) | aberrant enzyme activity, LYMPHS (lymphocytes [4]; P103 Viral Syndrome) | aberrant enzyme activity, MONOS (monocytes [5]; P88 Enteritis) | aberrant enzyme activity, MONOS (monocytes [5]; P89 Viral Stomatitis) | aberrant enzyme activity, MONOS (monocytes [5]; P92 Adenitis) | aberrant enzyme activity, MONOS (monocytes [5]; P97 Pyelonephritis) | aberrant enzyme activity, MONOS (monocytes [5]; P103 Viral Syndrome) | aberrant enzyme activity, GRANS (granulocytes [6]; P88 Enteritis) | aberrant enzyme activity, GRANS (granulocytes [6]; P89 Viral Stomatitis) | aberrant enzyme activity, GRANS (granulocytes [6]; P92 Adenitis) | aberrant enzyme activity, GRANS (granulocytes [6]; P97 Pyelonephritis) | aberrant enzyme activity, GRANS (granulocytes [6]; P103 Viral Syndrome) | other results
1 | C[C@H](NC(=O)CNC(=O)[C@H](Cc1ccccc1)NC(=O)CN)C(=O)Nc1ccc2c(c1)Oc1cc(NC(=O)[C@H](C)NC(=O)CNC(=O)[C@H](Cc3ccccc3)NC(=O)CN)ccc1C21OC(=O)c2ccccc21 [GFGA, (Gly-Phe-Gly-Ala)2 Rho 110] (I: H-GFGA / II: H-GFGA; linker I:C-II:C via Rhodamine110) | 0.36 | 1.00 | .smallcircle. | .smallcircle. | .smallcircle. | .smallcircle. | .smallcircle. | .smallcircle. | .smallcircle. | .smallcircle. | .smallcircle. | .smallcircle. | .smallcircle. | .smallcircle. | .smallcircle. | .smallcircle. | .smallcircle. | NORMAL LEUKOCYTE ENZYME ACTIVITY MONOS Mean (monocytes [2]): 1.01
2 | CC(C)[C@H](N)C(=O)N[C@@H](CCCCN)C(=O)Nc1ccc2c(c1)Oc1cc(NC(=O)[C@H](CCCCN)NC(=O)[C@@H](N)C(C)C)ccc1C21OC(=O)c2ccccc21 [VK, (Val-Lys)2 Rho 110] | 1.87 | 5.10 | .smallcircle. | .smallcircle. | .smallcircle. | .smallcircle. | .smallcircle. | - (>0.25 Decrease over normal range) | - (>0.25 Decrease over normal range) | .smallcircle. | .smallcircle. | + (>0.25 Increase over normal range) | - (>0.25 Decrease over normal range) | - (>0.25 Decrease over normal range) | .smallcircle. | + (>0.25 Increase over normal range) | .smallcircle. | MEAN DELTA FL ([7]; HIV + PATIENTS): 17.7; MEAN DELTA FL ([7]; NORMALS): 22.7; aberrant enzyme activity, LYMPHS (lymphocytes [4]; P95 Viral Syndrome): - (>0.25 Decrease over normal range); aberrant enzyme activity, LYMPHS (lymphocytes [4]; P96 Viral Syndrome): .smallcircle.; aberrant enzyme activity, LYMPHS (lymphocytes [4]; P99 Viral Syndrome): + (>0.25 Increase over normal range); aberrant enzyme activity, LYMPHS (lymphocytes [4]; P101 Fever -- Unknown Origin): .smallcircle.; aberrant enzyme activity, LYMPHS (lymphocytes [4]; P102 UTI): .smallcircle.; aberrant enzyme activity, MONOS (monocytes [5]; P95 Viral Syndrome): .smallcircle.; aberrant enzyme activity, MONOS (monocytes [5]; P96 Viral Syndrome): .smallcircle.; aberrant enzyme activity, MONOS (monocytes [5]; P99 Viral Syndrome): + (>0.25 Increase over normal range); aberrant enzyme activity, MONOS (monocytes [5]; P101 Fever -- Unknown Origin): .smallcircle.; aberrant enzyme activity, MONOS (monocytes [5]; P102 UTI): - (>0.25 Decrease over normal range); aberrant enzyme activity, GRANS (granulocytes [6]; P95 Viral Syndrome): - (>0.25 Decrease over normal range); aberrant enzyme activity, GRANS (granulocytes [6]; P96 Viral Syndrome): .smallcircle.; aberrant enzyme activity, GRANS (granulocytes [6]; P99 Viral Syndrome): + (>0.25 Increase over normal range); aberrant enzyme activity, GRANS (granulocytes [6]; P101 Fever -- Unknown Origin): .smallcircle.; aberrant enzyme activity, GRANS (granulocytes [6]; P102 UTI): .smallcircle.

From patent publication US5698411A, “Method for determining activity of enzymes in metabolically active whole cells” (priority 1995, dated 1997)
